Values quoted from earlier work, collected in patent publication US9867849B2, “Methods of treating or ameliorating skin conditions with a magnetic dipole stabilized solution” (REVEN PHARMACEUTICALS, INC., priority 2010, dated 2018).

How the values were obtained:
[1] = rats; 100 mg/kg body weight daily
[2] = rabbits
[3] = higher intake of vitamin K2
[4] = more than 500 postmenopausal women; dietary intake
[5] = 121 patients with hepatocellular carcinoma undergoing conventional therapy; 45 mg/day oral
[6] = test system: blast cell numbers in bone marrow and/or peripheral blood; conditions: of those receiving other medication concomitantly; 20-135 mg/day orally or 10-50 mg/day intravenously
[7] = 241 osteoporotic women, 45 mg/day vitamin K2 and 150 mg elemental calcium, after two years

**Q.** What does the source list for CC(C)=CCC/C(C)=C/CC/C(C)=C/CC/C(C)=C/CC1=C(C)C(=O)c2ccccc2C1=O [Vitamin K2]?
**A.** increase in calcium in both kidneys and aorta induced by megadose of synthetic vitamin D [1]: inhibited; atherosclerotic plaque progression in the aorta and pulmonary arteries ([2]; 1-10 mg/kg daily for 10 weeks): inhibited; ester cholesterol deposition in the aorta ([2]; compared to the control group): reduce; factor X activity in plasma ([2]; compared to the control group): reduce; lipid peroxidation ([2]; compared to the control group): reduce; total cholesterol levels ([2]; compared to the control group): reduce; reduction of prostate cancer risk [3]: 35%; coronary calcification (association with intake) [4]: associated with the trend toward decreasing coronary calcification; survival [5]: significant increase in survival; patients in whom blast cell numbers in bone marrow and/or peripheral blood were reduced [6]: ~71%; lumbar bone mineral density [7]: maintain lumbar bone mineral density; fracture incidence ([7]; 30% in the control group): 10%
